Target: T1, USP25 (USP25-His6, Boston Biochem E-546) (Homo sapiens, UniProt Q9UHP3)
T1 construct: His6 (C); purchased Boston Biochem E-546
T1 sequence (Q9UHP3 1-1055): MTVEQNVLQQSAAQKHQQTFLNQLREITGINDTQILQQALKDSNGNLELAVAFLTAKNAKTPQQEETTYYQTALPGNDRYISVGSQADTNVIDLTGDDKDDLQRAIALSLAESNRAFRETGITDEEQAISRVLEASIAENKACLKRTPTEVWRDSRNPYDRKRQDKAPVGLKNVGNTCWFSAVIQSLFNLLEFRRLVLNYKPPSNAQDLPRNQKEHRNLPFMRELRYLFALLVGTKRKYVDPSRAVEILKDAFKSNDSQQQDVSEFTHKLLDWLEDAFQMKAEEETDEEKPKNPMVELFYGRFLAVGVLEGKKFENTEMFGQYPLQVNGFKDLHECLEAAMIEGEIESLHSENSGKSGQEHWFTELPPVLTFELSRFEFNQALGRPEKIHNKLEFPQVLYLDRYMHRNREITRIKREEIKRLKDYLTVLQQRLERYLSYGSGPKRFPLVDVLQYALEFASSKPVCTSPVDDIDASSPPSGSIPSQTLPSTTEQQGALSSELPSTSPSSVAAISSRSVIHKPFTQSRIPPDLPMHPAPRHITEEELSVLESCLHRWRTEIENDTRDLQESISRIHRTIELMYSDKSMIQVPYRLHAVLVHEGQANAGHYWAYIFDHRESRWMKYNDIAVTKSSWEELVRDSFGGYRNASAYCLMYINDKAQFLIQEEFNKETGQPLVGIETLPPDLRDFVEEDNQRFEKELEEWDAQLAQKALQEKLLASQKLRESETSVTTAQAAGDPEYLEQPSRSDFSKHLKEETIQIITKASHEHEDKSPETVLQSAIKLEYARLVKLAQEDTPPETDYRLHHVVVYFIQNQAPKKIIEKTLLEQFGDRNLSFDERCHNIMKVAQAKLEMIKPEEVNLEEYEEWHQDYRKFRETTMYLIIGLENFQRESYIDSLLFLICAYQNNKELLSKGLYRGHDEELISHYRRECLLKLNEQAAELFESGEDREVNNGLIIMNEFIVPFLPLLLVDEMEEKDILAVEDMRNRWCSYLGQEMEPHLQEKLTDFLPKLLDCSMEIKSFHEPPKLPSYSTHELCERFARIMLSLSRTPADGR
Assay: Ubiquitin-Rhodamine 110 Assay for USP25 Activity, Example A-3
Format: biochemical
Details: Ubiquitin-Rhodamine 110 assay, Example A-3; read-out: USP25 A-3 IC50 range
Description: Example A-3: Biochemical Assay: Ubiquitin-Rhodamine 110 Assay for USP25 Activity
The assay was performed in a final volume of 9 μL in assay buffer containing 20 mM Tris-HCl (pH 8.0, (1M Tris-HCl, pH 8.0 solution; Corning 46-031-CM)), 3 mM BME (2-Mercaptoethanol; Sigma 63689-25ML-F), 0.03% BGG (0.22 μM filtered, Sigma, G7516-25G), and 0.01% Triton X-100 (Sigma, T9284-10L). Nanoliter quantities of 10-point, 3-fold serial dilution in DMSO was pre-dispensed into 1536 assay plates (Corning, #3724BC) for a final test concentration of 25 μM to 1.3 nM, top to lowest dose, respectively. Enzyme USP25, construct USP25-His6, (Boston Biochem E-546). Concentration and incubation times were optimized for the maximal signal-to-background while maintaining initial velocity conditions at a fixed substrate concentration. The final concentration of the enzyme in the assay was […]. Final substrate (Ub-Rh110; Ubiquitin-Rhodamine 110, R&D Systems #U-555) concentration was 25 nM with [Ub-Rh110]<<Km. 3 μL of 2× enzyme was added to assay plates (pre-stamped with compound) preincubated with […] for 30 minutes and then 3 μL of 2× Ub-Rh110 was added to assay plates. Plates were incubated for 45 minutes at room temperature before addition of 3 μL of stop solution (final concentration of 10 mM citric acid (Sigma, 251275-500G)). Fluorescence was read on the Envision (Excitation at 485 nm and Emission at 535 nm; Perkin Elmer) or on the PheraSTAR (Excitation at 485 nm and Emission at 535 nm; BMG Labtech).
For assay formats Example A-1(a), A-1(b), and A-2, data were reported as percent inhibition compared with control wells based on the following equation: % inh=1−((FLU−AveLow)/(AveHigh−AveLow)) where FLU=measured Fluorescence, AveLow=average Fluorescence of no enzyme control (n=16), and AveHighh=average Fluorescence of DMSO control (n=16). IC50 values were determined by curve fitting of the standard 4 parameter logistic fitting algorithm included in the Activity Base software package: IDBS XE Designer Model 205. Data is fitted using the Levenburg Marquardt algorithm.

Row | Compound | IC50 [µM]
1 | Cc1ccc2c(N)c(C(=O)N[C@H]3CCc4nc(N5C[C@@H]6COC[C@]6(N)C5)ccc4C3)sc2n1 [Example 394, N-[(6S)-2-[(3aR,6aS)-3a-amino-hexahydro-1H-furo[3,4-c]pyrrol-5-yl]-5,6,7,8-tetrahydroquinolin-6-yl]-3-amino-6-methylthieno[2,3-b]pyridine-2-carboxamide] | > 2
2 | Cc1ccc2c(N)c(C(=O)N[C@H]3CCc4nc(N5CC[C@@]6(C5)OCC[C@H]6N)ccc4C3)sc2n1 [Example 405, 3-amino-N-[(6S)-2-[(4R,5S)-4-amino-1-oxa-7-azaspiro[4.4]nonan-7-yl]-5,6,7,8-tetrahydroquinolin-6-yl]-6-methylthieno[2,3-b]pyridine-2-carboxamide] | 0.2 to 2
3 | Cc1ccc2c(N)c(C(=O)N[C@H]3CCc4nc(N5CC[C@@]6(C5)OCC[C@@H]6N)ccc4C3)sc2n1 [Example 407, 3-amino-N-[(6S)-2-[(4S,5S)-4-amino-1-oxa-7-azaspiro[4.4]nonan-7-yl]-5,6,7,8-tetrahydroquinolin-6-yl]-6-methylthieno[2,3-b]pyridine-2-carboxamide] | > 2
4 | CCn1ccc2cc(C(=O)N[C@H]3CCc4nc(N5C[C@H](N)[C@@H](C(F)(F)F)C5)ccc4C3)cnc21 [Example 421, N-[(6S)-2-[(3R,4S)-3-amino-4-(trifluoromethyl)pyrrolidin-1-yl]-5,6,7,8-tetrahydroquinolin-6-yl]-1-ethyl-1H-pyrrolo[2,3-b]pyridine-5-carboxamide] | 0.2 to 2
5 | CO[C@@]12CCN[C@H]1CN(c1ccc3c(n1)CC[C@H](NC(=O)c1sc4nc(C)ccc4c1N)C3)C2 [Example 434, N-[(6S)-2-[(3aR,6aS)-3a-methoxy-octahydropyrrolo[2,3-c]pyrrol-5-yl]-5,6,7,8-tetrahydroquinolin-6-yl]-3-amino-6-methylthieno[2,3-b]pyridine-2-carboxamide] | > 2
6 | Cc1ccc2c(N)c(C(=O)N[C@@H]3CCc4nc(N5C[C@@H](N)[C@H](C(F)F)C5)ncc4C3)sc2n1 [Example 382, 3-amino-N-[(6R)-2-[(3S,4R)-3-amino-4-(difluoromethyl)pyrrolidin-1-yl]-5,6,7,8-tetrahydroquinazolin-6-yl]-6-methylthieno[2,3-b]pyridine-2-carboxamide] | > 2
7 | Cc1ccc2c(N)c(C(=O)N[C@H]3CCc4nc(N5CC[C@]6(C5)OCC[C@H]6N)ccc4C3)sc2n1 [Example 408, 3-amino-N-[(6S)-2-[(4R,5R)-4-amino-1-oxa-7-azaspiro[4.4]nonan-7-yl]-5,6,7,8-tetrahydroquinolin-6-yl]-6-methylthieno[2,3-b]pyridine-2-carboxamide] | > 2
8 | CN[C@H]1CN(c2ccc3c(n2)CC[C@H](NC(=O)c2sc4nc(C)ccc4c2N)C3)C[C@@H]1C(F)F [Example 376, 3-amino-N-[(6S)-2-[(3S,4R)-3-(difluoromethyl)-4-(methylamino)pyrrolidin-1-yl]-5,6,7,8-tetrahydroquinolin-6-yl]-6-methylthieno[2,3-b]pyridine-2-carboxamide] | > 2
9 | Cc1ccc2c(N)c(C(=O)N[C@H]3CCc4nc(N5C[C@@H]6CCN[C@H](C5)C6(F)F)ccc4C3)sc2n1 [Example 367, 3-amino-N-[(6S)-2-[(1R,5S)-9,9-difluoro-2,7-diazabicyclo[3.3.1]nonan-7-yl]-5,6,7,8-tetrahydroquinolin-6-yl]-6-methylthieno[2,3-b]pyridine-2-carboxamide] | 0.05 to 0.2
10 | CO[C@]12CCN[C@@H]1CN(c1ccc3c(n1)CC[C@H](NC(=O)c1sc4nc(C)ccc4c1N)C3)C2 [Example 435, N-[(6S)-2-[(3aS,6aR)-3a-methoxy-octahydropyrrolo[2,3-c]pyrrol-5-yl]-5,6,7,8-tetrahydroquinolin-6-yl]-3-amino-6-methylthieno[2,3-b]pyridine-2-carboxamide] | 0.2 to 2
11 | Cc1cnc2c(N)c(C(=O)N[C@H]3CCc4cc(N5CC(C(=O)O)C5)ccc4C3)sc2n1 [Example 6-4, (S)-1-(6-(7-amino-3-methylthieno[2,3-b]pyrazine-6-carboxamido)-5,6,7,8-tetrahydronaphthalen-2-yl)azetidine-3-carboxylic acid] | 0.2 to 2
12 | CCn1ccc2cc(C(=O)N[C@H]3CCc4nc(N5C[C@@H](N)[C@H](C(F)F)C5)ccc4C3)cnc21 [Example 371, N-[(6S)-2-[(3S,4R)-3-amino-4-(difluoromethyl)pyrrolidin-1-yl]-5,6,7,8-tetrahydroquinolin-6-yl]-1-ethyl-1H-pyrrolo[2,3-b]pyridine-5-carboxamide] | > 2
13 | CCn1ccc2cc(C(=O)N[C@H]3CCc4nc(N5C[C@H](NC)[C@@H](OC)C5)ccc4C3)cnc21 [Example 402, 1-ethyl-N-[(6S)-2-[(3S,4S)-3-methoxy-4-(methylamino)pyrrolidin-1-yl]-5,6,7,8-tetrahydroquinolin-6-yl]-1H-pyrrolo[2,3-b]pyridine-5-carboxamide] | > 2
14 | Cc1ccc2c(N)c(C(=O)N[C@H]3CCc4nc(N5CCN[C@H](C(F)F)C5)ccc4C3)sc2n1 [Example 374, 3-amino-N-[(6S)-2-[(3S)-3-(difluoromethyl)piperazin-1-yl]-5,6,7,8-tetrahydroquinolin-6-yl]-6-methylthieno[2,3-b]pyridine-2-carboxamide] | > 2
15 | Cc1ccc2c(N)c(C(=O)N[C@H]3CCc4nc(N5C[C@H]6CCN[C@@H](C5)C6(F)F)ccc4C3)sc2n1 [Example 368, 3-amino-N-[(6S)-2-[(1S,5R)-9,9-difluoro-2,7-diazabicyclo[3.3.1]nonan-7-yl]-5,6,7,8-tetrahydroquinolin-6-yl]-6-methylthieno[2,3-b]pyridine-2-carboxamide] | 0.05 to 0.2
16 | COC[C@@H]1[C@@H](N)CCN1c1ccc2c(n1)CC[C@H](NC(=O)c1sc3nc(C)ccc3c1N)C2 [Example 420, 3-amino-N-[(6S)-2-[(2S,3S)-3-amino-2-(methoxymethyl)pyrrolidin-1-yl]-5,6,7,8-tetrahydroquinolin-6-yl]-6-methylthieno[2,3-b]pyridine-2-carboxamide] | 0.05 to 0.2
17 | CC(=O)N[C@@H]1CN(c2ccc3c(n2)CC[C@H](NC(=O)c2sc4nc(C)ccc4c2N)C3)C[C@H]1C(F)F [Example 372, 3-amino-N-[(6S)-2-[(3R,4S)-3-(difluoromethyl)-4-acetamidopyrrolidin-1-yl]-5,6,7,8-tetrahydroquinolin-6-yl]-6-methylthieno[2,3-b]pyridine-2-carboxamide] | > 2
18 | Cc1ccc2c(N)c(C(=O)N[C@H]3CCc4nc(N5C[C@@H](N)[C@@]6(CCOC6)C5)ccc4C3)sc2n1 (single isomer, unassigned) [Example 431] | > 2

Same assay, conditions: biochemical IC50 range, Ubiquitin-Rhodamine 110 assay, Example A-3; read-out: USP25 A-3

Row | Compound | IC50 [µM]
19 | Cc1ccc2c(N)c(C(=O)N[C@H]3COc4cc(N5CCNCC5)cc(F)c4C3)oc2n1 [Example 169, 3-amino-N-[(3R)-5-fluoro-7-(piperazin-1-yl)-3,4-dihydro-2H-1-benzopyran-3-yl]-6-methylfuro[2,3-b]pyridine-2-carboxamide] | > 2
